Results: the NIST ThermoML archive (doi:10.1021/je800463k)

Test: mn = molality of the nth substance listed, in mol/kg
Conditions: 101 kPa, Liquid; for mass density: Pycnometric method; for electrical conductivity: Frequency=0.001 MHz, Alternating current cell with electrodes; for speed of sound: Frequency=2 MHz

O=[N+]([O-])[O-].O=[N+]([O-])[O-].[Mg+2] [magnesium nitrate] + CO
Conditions | electrical conductivity [S/m] | mass density [kg/m3] | speed of sound [m/s] | viscosity [mPa·s]
308.75 K, m1 = 0.4555 | – | 824.82 | – | –
308.75 K, m1 = 1.004 | – | 877.82 | – | –
308.85 K, m1 = 1.492 | – | 927.12 | – | –
309.1 K, m1 = 0.0082 | – | 775.87 | – | –
309.4 K, m1 = 0.1047 | – | 789.92 | – | –
309.75 K, m1 = 0.0545 | – | 782.89 | – | –
309.75 K, m1 = 0.881 | – | 863.28 | – | –
309.9 K, m1 = 0.2776 | – | 806.88 | – | –
309.95 K, m1 = 1.259 | – | 904.15 | – | –
310.1 K, m1 = 0.782 | – | 861.14 | – | –
310.2 K, m1 = 0.0667 | – | 784.14 | – | –
310.3 K, m1 = 1.71 | – | 944.04 | – | –
310.4 K, m1 = 0.4024 | – | 818.47 | – | –
310.45 K, m1 = 0.6276 | – | 841.27 | – | –
310.65 K, m1 = 0.4555 | – | 823.17 | – | –
310.7 K, m1 = 1.004 | – | 876 | – | –
311.55 K, m1 = 1.875 | – | 953.58 | – | –
311.6 K, m1 = 0.0082 | – | 773.44 | – | –
311.7 K, m1 = 0.0667 | – | 782.46 | – | –
311.9 K, m1 = 0.881 | – | 861.58 | – | –
311.9 K, m1 = 1.259 | – | 902.37 | – | –
312 K, m1 = 0.1047 | – | 787.42 | – | –
312 K, m1 = 1.492 | – | 924.32 | – | –
312.1 K, m1 = 0.4024 | – | 816.76 | – | –
312.2 K, m1 = 0.4555 | – | 821.41 | – | –
312.25 K, m1 = 0.6276 | – | 839.48 | – | –
312.3 K, m1 = 0.0545 | – | 780.41 | – | –
312.45 K, m1 = 1.71 | – | 942.18 | – | –
312.5 K, m1 = 0.2776 | – | 804.41 | – | –
312.85 K, m1 = 0.782 | – | 858.54 | – | –
313.15 K, m1 = 0.0082 | 0.1573 | – | 1059.8 | 0.4543
313.15 K, m1 = 0.0545 | 0.4382 | – | 1066.6 | 0.483
313.15 K, m1 = 0.0667 | 0.4799 | – | 1067.2 | 0.4662
313.15 K, m1 = 0.1047 | 0.6326 | – | 1072.3 | 0.5128
313.15 K, m1 = 0.2776 | 1.215 | – | 1090.3 | 0.5885
313.15 K, m1 = 0.4024 | 1.537 | – | 1099.9 | 0.6799
313.15 K, m1 = 0.4555 | 1.625 | – | 1105.5 | 0.7062
313.15 K, m1 = 0.6276 | 1.951 | – | 1123.8 | 0.8707
313.15 K, m1 = 0.782 | 2.183 | – | 1140.7 | 0.9902
313.15 K, m1 = 0.881 | 2.262 | – | 1147.3 | 0.9936
313.15 K, m1 = 0.9116 | 2.287 | – | 1150.2 | 1.038
313.15 K, m1 = 1.004 | 2.39 | – | 1164.5 | 1.124
313.15 K, m1 = 1.259 | 2.502 | – | 1183.5 | 1.536
313.15 K, m1 = 1.492 | 2.545 | – | 1210.2 | 1.837
313.15 K, m1 = 1.71 | 2.587 | – | 1231.4 | 2.169
313.15 K, m1 = 1.875 | 2.567 | – | 1240.4 | 2.45
313.3 K, m1 = 0.0667 | – | 780.84 | – | –
313.65 K, m1 = 1.004 | – | 873.36 | – | –
313.7 K, m1 = 1.875 | – | 951.61 | – | –
313.85 K, m1 = 0.4024 | – | 815.07 | – | –
313.95 K, m1 = 0.0545 | – | 778.79 | – | –
314 K, m1 = 0.0082 | – | 771.07 | – | –
314.25 K, m1 = 1.492 | – | 922.37 | – | –
314.4 K, m1 = 0.1047 | – | 784.98 | – | –
314.6 K, m1 = 1.71 | – | 940.19 | – | –
314.7 K, m1 = 0.881 | – | 858.85 | – | –
314.8 K, m1 = 0.4555 | – | 818.87 | – | –
314.85 K, m1 = 1.259 | – | 899.51 | – | –
314.9 K, m1 = 0.6276 | – | 836.88 | – | –
315.1 K, m1 = 0.2776 | – | 801.88 | – | –
315.45 K, m1 = 0.4024 | – | 813.41 | – | –
315.65 K, m1 = 0.0667 | – | 778.45 | – | –
315.65 K, m1 = 0.782 | – | 855.81 | – | –
315.8 K, m1 = 1.875 | – | 949.71 | – | –
315.95 K, m1 = 0.1047 | – | 783.38 | – | –
316.35 K, m1 = 0.0545 | – | 776.41 | – | –
316.5 K, m1 = 0.4555 | – | 817.2 | – | –
316.6 K, m1 = 0.881 | – | 857.07 | – | –
316.6 K, m1 = 1.004 | – | 870.6 | – | –
316.65 K, m1 = 0.6276 | – | 835.18 | – | –
316.75 K, m1 = 1.259 | – | 897.65 | – | –
317.35 K, m1 = 0.2776 | – | 799.43 | – | –
317.35 K, m1 = 1.492 | – | 919.48 | – | –
317.5 K, m1 = 0.782 | – | 854.04 | – | –
317.8 K, m1 = 1.875 | – | 947.68 | – | –
317.85 K, m1 = 1.71 | – | 937.24 | – | –
318.15 K, m1 = 0.0082 | – | – | 1044.1 | –
318.15 K, m1 = 0.0545 | – | – | 1045.1 | –
318.15 K, m1 = 0.0667 | – | – | 1051.1 | –
318.15 K, m1 = 0.1047 | – | – | 1056.1 | –
318.15 K, m1 = 0.2776 | – | – | 1074.8 | –
318.15 K, m1 = 0.4024 | – | – | 1083.3 | –
318.15 K, m1 = 0.4555 | – | – | 1089.9 | –
318.15 K, m1 = 0.6276 | – | – | 1108 | –
318.15 K, m1 = 0.782 | – | – | 1124.4 | –
318.15 K, m1 = 0.881 | – | – | 1131.9 | –
318.15 K, m1 = 0.9116 | – | – | 1134 | –
318.15 K, m1 = 1.004 | – | – | 1148.2 | –
318.15 K, m1 = 1.259 | – | – | 1167.6 | –
318.15 K, m1 = 1.492 | – | – | 1193.9 | –
318.15 K, m1 = 1.71 | – | – | 1216.4 | –
318.15 K, m1 = 1.875 | – | – | 1225.2 | –
319.3 K, m1 = 0.881 | – | 854.45 | – | –
319.45 K, m1 = 1.004 | – | 867.87 | – | –
319.55 K, m1 = 1.259 | – | 894.9 | – | –
320.2 K, m1 = 1.492 | – | 916.67 | – | –
320.25 K, m1 = 0.782 | – | 851.43 | – | –
320.75 K, m1 = 1.875 | – | 944.75 | – | –
320.9 K, m1 = 1.71 | – | 934.37 | – | –
323.15 K, m1 = 0.0082 | – | – | 1027.3 | –
323.15 K, m1 = 0.0545 | – | – | 1033.4 | –
323.15 K, m1 = 0.0667 | – | – | 1035.4 | –
323.15 K, m1 = 0.1047 | – | – | 1039.7 | –
323.15 K, m1 = 0.2776 | – | – | 1058.3 | –
323.15 K, m1 = 0.4024 | – | – | 1067.5 | –
323.15 K, m1 = 0.4555 | – | – | 1076.2 | –
323.15 K, m1 = 0.6276 | – | – | 1093.5 | –
323.15 K, m1 = 0.782 | – | – | 1108.6 | –
323.15 K, m1 = 0.881 | – | – | 1115.5 | –
323.15 K, m1 = 0.9116 | – | – | 1119.3 | –
323.15 K, m1 = 1.004 | – | – | 1133.8 | –
323.15 K, m1 = 1.259 | – | – | 1151.8 | –
323.15 K, m1 = 1.492 | – | – | 1177.5 | –
323.15 K, m1 = 1.71 | – | – | 1199 | –
323.15 K, m1 = 1.875 | – | – | 1209.5 | –
